Experimental data as given in patent US5905068A, “Retroviral protease inhibiting compounds” (Abbott Laboratories, priority 1996, dated 1999).

What was measured:
HIVIIIB = test: Antiviral Activity: anti-HIV activity in MT4 cells infected with HIVIIIB (MTT); assay type: cell-based; details: Human immunodeficiency virus 1, 120 h, MOI 0.003, 5 days, n=four duplicate determinations
Experimental: (§1) The anti-HIV activity of the compound of the invention was determined in MF4 cells according to the following procedure: MT4 cells were infected with cell-free supernatant of HIVIIIB (previously frozen with known 50% tissue culture infectious dose (TCID50) at 0.003 multiplicity of infection (MOI)) for one hour. After one hour infection, cells were washed twice to remove residual viruses, resuspended in culture media and seeded into 96-well tissue culture plates at 1×10^4 cells per well with various half-log dilutions of compounds. Uninfected cells were included a toxicity and cell controls. RPMI 1640 media (GIBCO) with 10% fetal bovine serum was used as culture media. Various concentrations (50%, 25% and 12.5%) of human serum (SIGMA) were added to culture media resulting in final concentrations of 60%, 35% and 22.5% total serum. All assay plates were incubated in a 37° C. incubator for 5 days. The compound 3-[4,5-dimethylthiozol-2-yl]-2,5-diphenyltetrazolium bromide (MTT, SIGMA, 5 mg .mL stock in PBS) was then added to all wells at 25 μL per well and incubated for 4 hours. SDS (20%) with 0.02N HCl in water was added at 50 μL per well to lyse cells. Plates were incubated overnight for complete cell lysis and then read on a microtiter plate reader at 570/650 nm wavelengths to determine cell optical density (O.D.). Raw data was analysed for percent inhibition by the following formula: [formula]
The 50% effective concentration (EC50) was calculated by the median effect equation (Chou, 1975, Proc. Int. Cong. Pharmacol. 6th p. 619) to determine the efficacy of compound. The 50% cytotoxicity concentration (CTC50) was calculated using uninfected MT4 cells
Under these conditions, the data of Table 2 was obtained (n=four duplicate determinations).

[1] = Cytotoxicity in uninfected MT4 cells (MTT); assay type: cell-based; details: human, 5 days, n=four duplicate determinations, read-out: CTC50 (50% cytotoxicity concentration)
Experimental: as §1, with “RPMI 1640 media (GIBCO) with 10% fetal bovine serum was used as culture media. Various concentrations (50%, 25% and 12.5%) of human serum (SIGMA) were added to culture media resulting in final concentrations of 60%, 35% and 22.5% total serum.” left out, “The compound 3-[4,5-dimethylthiozol-2-yl]-2,5-diphenyltetrazolium bromide (MTT, SIGMA, 5 mg .mL stock in PBS) was then added to all wells at 25 μL per well and incubated for 4 hours.” left out
The 50% cytotoxicity concentration (CTC50) was calculated using uninfected MT4 cells

HIV-1 protease = HIV-1 protease (Human immunodeficiency virus type 1 group M subtype B, UniProt P04585); test: Fluorogenic Assay for Screening Inhibitors of HIV Protease; details: pH 4.5
Experimental: The inhibitory potency of the compounds of the invention were determined by the following method: The compound of the invention was dissolved in DMSO and a small aliquot further diluted with DMSO to 100 times the final concentration desired for testing. The reaction was carried out in a 6×50 mm tube in a total volume of 300 microliters. […] After addition of inhibitor, the reaction mixture was placed in the fluorometer cell holder and incubated at 30° C. for several minutes. The reaction was initiated by the addition of a small aliquot of cold HIV protease. The fluorescence intensity (excitation 340 nm, emission 490 nm) was recorded as a function of time. The reaction rate was determined for the first six to eight minutes. The observed rate was directly proportional to the moles of substrate cleaved per unit time. The percent inhibition was calculated according to the equation: 100×(1-(rate of inhibitor)/(rate in absence of inhibitor)). As a control, duplicate reactions were performed identically as above but without the addition of an inhibitor compound.

For `Cc1ccc(N)c(C)c1OCC(=O)N[C@@H](Cc1ccccc1)C[C@H](O)[C@H](Cc1ccccc1)NC(=O)O[C@H]1CO[C@H]2OCC[C@H]21` [Example 16, (2S,3S,5S)-5-(2,6-Dimethyl-3-amino-phenoxyacetyl)amino-2-((3R,3aS,6aR)-bis-tetrahydrofuran-3-yl-oxycarbonyl)amino-1,6-diphenyl-3-hydroxyhexane], which EC50 (HIVIIIB) is on record?
Its EC50 is < 32 nM.

And the CC50 at 120 h [1]?
The CC50 at 120 h was > 100000 nM.

And the inhibition at 0.0005 µM (HIV-1 protease)?
The inhibition at 0.0005 µM was 87%.

Which EC50 (HIVIIIB) does the source give for `Cc1cc(N)cc(C)c1SCC(=O)N[C@@H](Cc1ccccc1)C[C@H](O)[C@H](Cc1ccccc1)NC(=O)O[C@H]1CO[C@H]2OCC[C@H]21` [Example 17, 5-(2,6-Dimethyl-4-amino-phenylthioacetyl)amino-2-((3R,3aS,6aR)-bis-tetrahydrofuran-3-yl-oxycarbonyl)amino-1,6-diphenyl-3-hydroxybexane] here?
Its EC50 is 5790 nM.

What about the CC50 at 120 h [1] of the same compound?
The CC50 at 120 h was 56000 nM.

And the inhibition at 0.001 µM (HIV-1 protease)?
Its inhibition at 0.001 µM is 50%.

Which EC50 (HIVIIIB) does the source give for `O=C(N[C@@H](Cc1ccccc1)C[C@H](O)[C@H](Cc1ccccc1)NC(=O)O[C@H]1CO[C@H]2OCC[C@H]21)O[C@H]1CO[C@H]2OCC[C@H]21` [Example 20, (2S,3S,5S)-2,5-Di-((3R,3aS,6aR)-bis-Tetrahydrofuran-3-yl-oxycarbonyl)amino-1,6-diphenyl-3-hydroxyhexane] here?
Its EC50 is 34 nM.

And the CC50 at 120 h [1]?
The CC50 at 120 h was > 100000 nM.

What about the inhibition at 0.0005 µM (HIV-1 protease) of the same compound?
Its inhibition at 0.0005 µM is 64%.

With `O=C(N[C@@H](Cc1ccccc1)[C@@H](O)C[C@H](Cc1ccccc1)NC(=O)O[C@@H]1CO[C@@H]2OCC[C@@H]21)O[C@H]1CO[C@H]2OCC[C@H]21` [Example 22, (2S,3S,5S)-2-((3R,3aS,6aR)-bis-Tetrahydrofuran-3-yl-oxycarbonyl)amino-5-((3S,3aR,6aS)-bis-Tetrahydrofuran-3-yl-oxycarbonyl)amino-1,6-diphenyl-3-hydroxyhexane] as the compound, how does the EC50 (HIVIIIB) read?
Its EC50 is 107 nM.

And the CC50 at 120 h [1]?
The CC50 at 120 h was > 100000 nM.

What about the inhibition at 0.0005 µM (HIV-1 protease) of the same compound?
The inhibition at 0.0005 µM was 73%.

Which EC50 (HIVIIIB) does the source give for `O=C(N[C@@H](Cc1ccccc1)C[C@H](O)[C@H](Cc1ccccc1)NC(=O)O[C@@H]1CO[C@@H]2OCC[C@@H]21)O[C@H]1CO[C@H]2OCC[C@H]21` [Example 23, (2S,3S,5S)-2-((3S,3aR,6aS)-bis-tetrahydrofuran-3-yl-oxycarbonyl)amino-5-((3R,3aS,6aR)-bis-tetrahydrofuran-3-yl-oxycarbonyl)amino-1,6-diphenyl-3-hydroxyhexane] here?
The EC50 was 891 nM.

And the CC50 at 120 h [1]?
The CC50 at 120 h was > 100000 nM.

And the inhibition at 0.0005 µM (HIV-1 protease)?
Its inhibition at 0.0005 µM is 39%.

Which EC50 (HIVIIIB) does the source give for `Cc1cc2[nH]cnc2c(C)c1OCC(=O)N[C@@H](Cc1ccccc1)C[C@H](O)[C@H](Cc1ccccc1)NC(=O)O[C@H]1CO[C@H]2OCC[C@H]21` [Example 24, (2S,3S,5S)-5-(4,6-Dimethyl-benzimidazol-5-yloxy-acetyl)amino-2-((3R,3aS,6aR)-bis-tetrahydrofuran-3-yl-oxycarbonyl)amino-1,6-diphenyl-3-hydroxyhexane] here?
Its EC50 is 114 nM.

What about the CC50 at 120 h [1] of the same compound?
Its CC50 at 120 h is > 100000 nM.

What about the inhibition at 0.0005 µM (HIV-1 protease) of the same compound?
The inhibition at 0.0005 µM was 80%.

With `Cc1cc2[nH]c(=O)[nH]c2c(C)c1OCC(=O)N[C@@H](Cc1ccccc1)C[C@H](O)[C@H](Cc1ccccc1)NC(=O)O[C@H]1CO[C@H]2OCC[C@H]21` [Example 25, (2S,3S,5S)-5-(4,6-Dimethyl-benzimidazolinon-5-yloxy-acetyl)amino-2-((3R,3aS,6aR)-bis-tetrahydrofuran-3-yl-oxycarbonyl)amino-1,6-diphenyl-3-hydroxyhexane] as the compound, how does the EC50 (HIVIIIB) read?
Its EC50 is 972 nM.

What about the CC50 at 120 h [1] of the same compound?
The CC50 at 120 h was > 100000 nM.

And the inhibition at 0.0005 µM (HIV-1 protease)?
The inhibition at 0.0005 µM was 85%.

What does the source list for `Cc1cc2ncoc2c(C)c1OCC(=O)N[C@@H](Cc1ccccc1)C[C@H](O)[C@H](Cc1ccccc1)NC(=O)O[C@H]1CO[C@H]2OCC[C@H]21` [Example 26, (2S,3S,5S)-5-(4,6-Dimethyl-benzoxazol-5-yloxy-acetyl)amino-2-((3R,3aS,6aR)-bis-tetrahydrofuran-3-yl-oxycarbonyl)amino-1,6-diphenyl-3-hydroxyhexane]?
EC50 (HIVIIIB): 157 nM; CC50 at 120 h [1]: 29800 nM; inhibition at 0.0005 µM (HIV-1 protease): 80%

For `Cc1cccc(C)c1OCC(=O)N[C@@H](Cc1ccccc1)[C@@H](O)C[C@H](Cc1ccccc1)NC(=O)O[C@@H]1CCSC1(C)C` [Example 32, (2S,3S,5S)-2-(2,6-Dimethylphenoxyacetyl)amino-5-(3R-2,2-dimethyl-tetrahydrothienyloxycarbonyl)amino-1,6-diphenyl-3-hydroxyhexane], which EC50 (HIVIIIB) is on record?
Its EC50 is 1180 nM.

And the CC50 at 120 h [1]?
The CC50 at 120 h was > 100000 nM.

What about the inhibition at 0.0005 µM (HIV-1 protease) of the same compound?
Its inhibition at 0.0005 µM is 50%.

Which EC50 (HIVIIIB) does the source give for `Cc1cccc(C)c1OCC(=O)N[C@@H](Cc1ccccc1)[C@@H](O)C[C@H](Cc1ccccc1)NC(=O)O[C@@H]1CCS(=O)(=O)C1(C)C` [Example 33, (2S,3S,5S)-2-(2,6-Dimethylphenoxyacetyl)amino-5-(3R-2,2-dimethyl-1,1-dioxy-tetrahydrothienyloxycarbonyl)amino-1,6-diphenyl-3-hydroxyhexane] here?
Its EC50 is 442 nM.

What about the CC50 at 120 h [1] of the same compound?
Its CC50 at 120 h is 18300 nM.

And the inhibition at 0.0005 µM (HIV-1 protease)?
Its inhibition at 0.0005 µM is 84%.

With `CC(C)c1nc(CN(C)C(=O)N[C@H](C(=O)N[C@@H](Cc2ccccc2)C[C@H](O)[C@H](Cc2ccccc2)NC(=O)OC2COC3OCCC23)C(C)C)cs1` (stereo partly drawn) [Example 34, (2S,3S,5S)-5-(N-(N-((N-Methyl-N-((2-isopropyl-4-thiazolyl)methyl)amino)carbonyl)-L-valinyl)amino)-2-((3R,3aS,6aR), (3S,3aR,6aS)-bis-tetrahydrofuran-3-yl-oxycarbonyl)amino-1,6-diphenyl-3-hydroxyhexane] as the compound, how does the EC50 (HIVIIIB) read?
Its EC50 is 9 nM.

And the CC50 at 120 h [1]?
Its CC50 at 120 h is 56300 nM.

What about the inhibition at 0.0005 µM (HIV-1 protease) of the same compound?
The inhibition at 0.0005 µM was 52%.

Which EC50 (HIVIIIB) does the source give for `O=C(N[C@@H](Cc1ccccc1)[C@@H](O)C[C@H](Cc1ccccc1)NC(=O)OC1COC2OCCC12)OCc1cncs1` (stereo partly drawn) [Example 35, (2S,3S,5S)-2-((5-Thiazolyl)methoxycarbonyl)amino-5-((3R,3aS,6aR), (3S,3aR,6aS)-bis-tetrahydrofuran-3-yl-oxycarbonyl)amino-1,6-diphenyl-3-hydroxyhexane] here?
Its EC50 is 428 nM.

What about the CC50 at 120 h [1] of the same compound?
Its CC50 at 120 h is > 100000 nM.

What about the inhibition at 0.0005 µM (HIV-1 protease) of the same compound?
Its inhibition at 0.0005 µM is 52%.

Which EC50 (HIVIIIB) does the source give for `CC(C)c1nc(COC(=O)N[C@@H](C(=O)N[C@@H](Cc2ccccc2)C[C@H](O)[C@H](Cc2ccccc2)NC(=O)OC2COC3OCCC23)C(C)C)cs1` (stereo partly drawn) [Example 36] here?
Its EC50 is 30 nM.

And the CC50 at 120 h [1]?
Its CC50 at 120 h is 27800 nM.

What about the inhibition at 0.0005 µM (HIV-1 protease) of the same compound?
Its inhibition at 0.0005 µM is 66%.

With `CC(C)c1nc(COC(=O)N[C@H](C(=O)N[C@@H](Cc2ccccc2)C[C@H](O)[C@H](Cc2ccccc2)NC(=O)OC2COC3OCCC23)C(C)C)cs1` (stereo partly drawn) [Example 37] as the compound, how does the EC50 (HIVIIIB) read?
Its EC50 is 14 nM.

What about the CC50 at 120 h [1] of the same compound?
The CC50 at 120 h was > 100000 nM.

And the inhibition at 0.0005 µM (HIV-1 protease)?
Its inhibition at 0.0005 µM is 83%.

Which EC50 (HIVIIIB) does the source give for `O=C(N[C@@H](Cc1ccccc1)[C@@H](O)C[C@H](Cc1ccccc1)NC(=O)O[C@@H]1CO[C@@H]2OCC[C@@H]21)OCc1cncs1` [Example 38, (2S,3S,5S)-2-((5-Thiazolyl)methoxycarbonyl)amino-5-((3S,3aR,6aS)-bis-tetrahydrofuran-3-yl-oxycarbonyl)amino-1,6-diphenyl-3-hydroxyhexane] here?
Its EC50 is 140 nM.

And the CC50 at 120 h [1]?
Its CC50 at 120 h is > 100000 nM.

And the inhibition at 0.0005 µM (HIV-1 protease)?
The inhibition at 0.0005 µM was 53%.

With `CC(C)c1nc(CN(C)C(=O)N[C@@H](C(=O)N[C@@H](Cc2ccccc2)C[C@H](O)[C@H](Cc2ccccc2)NC(=O)OC2COC3OCCC23)C(C)C)cs1` (stereo partly drawn) [Example 39, (2S,3S,5S)-5-(N-(N-((N-Methyl-N-((2-isopropyl-4-thiazolyl)methyl)amino)carbonyl)-D-valinyl)amino)-2-((3R,3aS,6aR), (3S,3aR,6aS)-bis-tetrahydrofuran-3-yl-oxycarbonyl)amino-1,6-diphenyl-3-hydroxyhexane] as the compound, how does the EC50 (HIVIIIB) read?
Its EC50 is 55 nM.

And the CC50 at 120 h [1]?
The CC50 at 120 h was 56200 nM.

What about the inhibition at 0.0005 µM (HIV-1 protease) of the same compound?
Its inhibition at 0.0005 µM is 66%.

What does the source list for `O=C(N[C@@H](Cc1ccccc1)C[C@H](O)[C@H](Cc1ccccc1)NC(=O)OC1COC2OCCC12)OCc1cncs1` (stereo partly drawn) [Example 40, (2S,3S,5S)-5-((5-Thiazolyl)methoxycarbonyl)amino-2-((3R,3aS,6aR), (3S,3aR,6aS)-bis-tetrahydrofuran-3-yl-oxycarbonyl)amino-1,6-diphenyl-3-hydroxyhexane]?
EC50 (HIVIIIB): 502 nM; CC50 at 120 h [1]: > 100000 nM; inhibition at 0.0005 µM (HIV-1 protease): 43%

With `O=C(N[C@@H](Cc1ccccc1)C[C@H](O)[C@H](Cc1ccccc1)NC(=O)OC1COC2OCCC12)OC1COC2OCCC12` (stereo partly drawn) [Example 41, (2S,3S,5S)-2,5-((3R,3aS,6aR)-bis-Tetrahydrofuran-3-yl-oxycarbonyl)amino-1,6-diphenyl-3-hydroxyhexane] as the compound, how does the EC50 (HIVIIIB) read?
The EC50 was 43 nM.

What about the CC50 at 120 h [1] of the same compound?
The CC50 at 120 h was > 100000 nM.

And the inhibition at 0.0005 µM (HIV-1 protease)?
The inhibition at 0.0005 µM was 53%.
